# Results reported in patent US20210392892A1, “COMPOSITIONS COMPRISING PYRIDINE CARBOXYLATE HERBICIDES AND ACETYL COA CARBOXYLASE (ACCASE) INHIBITOR HERBICIDES” (Corteva Agriscience LLC, priority 2018, published 2021).
# Values joined by “and” are separate entries in the source; they are usually repeats but may differ in a detail not shown here. Equal entries are not always repeated.
# What was measured:
# Experiment in all cases: Greenhouse postemergence herbicidal effect (visual injury)
# Assay type in all cases: in vivo
# [1] = tested on: RUMOB, Rumex obtusifolius (broad-leaf dock)
# Excerpt: (§1) Seeds of the desired test plant species were planted in a 90:10% v/v (volume/volume) mixture of PRO-MIX® BX (Premier Tech Horticulture, Quakertown, Pa., USA) and PROFILE® GREENS GRADE™ (Profile Products LLC, Buffalo Grove, Ill., USA) planting mixture, which typically has a pH of 5.2 to 6.2 and an organic matter content of at least 50 percent, in plastic pots with a surface area of 103.2 square centimeters (cm^2). In some aspects, to help ensure good germination and healthy plants, a fungicide treatment and/or other chemical or physical treatment was applied. The plants were grown for 7-36 days (d) in a greenhouse with an approximate 14-hour (h) photoperiod which was maintained at about 23° C. during the day and 22° C. during the night. Nutrients and water were added on a regular basis and supplemental lighting was provided with overhead metal halide 1000-Watt lamps as necessary. The plants were employed for testing when they reached the second or third true leaf stage.
# (§2) Emulsifiable concentrates of each of each pyridine carboxylate herbicide (Compound A or Compound B) were prepared at 100 grams acid equivalent per liter (g ae/L). The emulsifiable concentrates also included a safener, cloquintocet-mexyl, at 120 grams active ingredient per liter (g ai/L), unless otherwise noted below. An aliquot of each emulsifiable concentrate was placed in a 25 mL glass vial and diluted with an aqueous mixture of 1.25% (v/v) ACTIROB® B esterified rapeseed oil (Bayer Crop Science, Research Triangle Park, N.C., USA) or MSO® Concentrate with LECI-TECH® methylated soybean oil (Loveland Products, Loveland, Colo., USA) to obtain concentrated stock solutions at the highest application rate for each herbicide, based upon a 12 milliliter (mL) application volume at a rate of 187 liters per hectare (L/ha). The concentrated stock solutions were further diluted with an aqueous mixture of 1.25% v/v ACTIROB® B or MSO® Concentrate with LECI-TECH® to obtain stock solutions at reduced application rates for each herbicide. Spray solutions of the herbicide combinations (Compound A or Compound B plus ACCase inhibitor herbicide) were prepared by adding weighed amounts or aliquots of the ACCase inhibitor herbicide to the stock solutions of Compound A or Compound B to form 12-mL spray solutions in two-way combinations.
# (§3) The spray solutions were applied to the plant material with an overhead Mandel track sprayer equipped with 8002E nozzles calibrated to deliver 187 L/ha over an application area of 0.503 square meters (m^2) at a spray height of 18 inches (43 centimeters (cm)) above the average plant canopy. Control plants were sprayed in the same manner with the solvent blank. All pyridine carboxylate herbicide (component a) application rates are given as “g ae/ha” and all ACCase inhibitor herbicide (component b) application rates are given as “g ai/ha.”
# (§4) The treated plants and control plants were placed in a greenhouse as described above and watered by sub-irrigation to prevent wash-off of the test compounds. After 20-22 d, the condition of the test plants as compared with that of the control plants was determined visually and scored on a scale of 0 to 100 percent where 0 corresponds to no injury and 100 corresponds to complete kill.
# [2] = tested on: HELAN, Helianthus annuus (common sunflower)
# Excerpt: as §1, §2, §3, §4
# [3] = tested on: KCHSC, Kochia scoparia (kochia)
# Excerpt: as §1, §2, §3, §4
# [4] = tested on: LEFCH, Leptochloa chinensis (Chinese sprangletop)
# Excerpt: as §1, §2, §3, §4
# [5] = 7.5 g ae/ha, with cloquintocet-mexyl
# [6] = 7.5 g ae/ha, without cloquintocet-mexyl
# [7] = 10 g ae/ha, with cloquintocet-mexyl
# [8] = 10 g ae/ha, without cloquintocet-mexyl
compound,measurement,setting,value
"N#CCOC(=O)c1nc(-c2ccc3cc[nH]c3c2F)c(F)c(N)c1Cl [Compound A, cyanomethyl 4-amino-3-chloro-5-fluoro-6-(7-fluoro-1H-indol-6-yl)pyridine-2-carboxylate]","% visual injury, Obs",[1]; [5],13%
same,"% visual injury, Obs",[1]; [6],38%
same,"% visual injury, Obs",[1]; [7],8%
same,"% visual injury, Obs",[1]; [8],35%
same,"% visual injury, Obs","[1]; RUMOB, Compound A 7.5 g/ha, Fluazifop 0 g/ha",38%
same,"% visual injury, Obs","[1]; RUMOB, Compound A 10 g/ha, Fluazifop 0 g/ha",35%
same,"% visual injury, Obs",[2]; [6],95%
same,"% visual injury, Obs",[2]; [8],100%
same,"% visual injury, Obs","[2]; HELAN, Compound A 7.5 g/ha, Fluazifop 0 g/ha",95%
same,"% visual injury, Obs","[2]; HELAN, Compound A 10 g/ha, Fluazifop 0 g/ha",100%
same,"% visual injury, Obs",[3]; [5],63%
same,"% visual injury, Obs",[3]; [6],73%
same,"% visual injury, Obs",[3]; [7],70%
same,"% visual injury, Obs",[3]; [8],88%
same,"% visual injury, Obs","[3]; KCHSC, Compound A 7.5 g/ha, Fluazifop 0 g/ha",73%
same,"% visual injury, Obs","[3]; KCHSC, Compound A 10 g/ha, Fluazifop 0 g/ha",88%
same,"% visual injury, Obs",[4]; [6],0%
same,"% visual injury, Obs",[4]; [8],0% and 5%
same,"% visual injury, Obs","[4]; LEFCH, Compound A 7.5 g/ha, Fluazifop 0 g/ha",0%
same,"% visual injury, Obs","[4]; LEFCH, Compound A 7.5 g/ha, Haloxyfop-R-methyl 0 g/ha",0%
same,"% visual injury, Obs","[4]; LEFCH, Compound A 7.5 g/ha, Quizalofop-P-ethyl 0 g/ha",0%
same,"% visual injury, Obs","[4]; LEFCH, Compound A 10 g/ha, Fluazifop 0 g/ha",0%
same,"% visual injury, Obs","[4]; LEFCH, Compound A 10 g/ha, Haloxyfop-R-methyl 0 g/ha",5%
same,"% visual injury, Obs","[4]; LEFCH, Compound A 10 g/ha, Quizalofop-P-ethyl 0 g/ha",5%
